# Data reported in PubChem BioAssay (NCI).
#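 How tested: cells in 96-well plates exposed to compound for 48 hours at five concentrations. GI50 marks 50% less growth. Definition used: TGI = concentration required for complete inhibition of growth.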
# Experiments:
# Assay in all cases: growth of human tumour cells (NCI), 48 h
# UACC-257 melanoma = tested on: UACC-257 melanoma
# OVCAR-4 ovarian = tested on: OVCAR-4 ovarian
# TK-10 renal = tested on: TK-10 renal
# HCT-15 colon = tested on: HCT-15 colon
# HS 578T breast = tested on: HS 578T breast
# CAKI-1 renal = tested on: CAKI-1 renal
# MDA-MB-435 = tested on: MDA-MB-435
# SR leukemia = tested on: SR leukemia
# HOP-62 NSCLC = tested on: HOP-62 NSCLC
# A498 renal = tested on: A498 renal
SMILES,TGI (UACC-257 melanoma),TGI (OVCAR-4 ovarian),TGI (TK-10 renal),TGI (HCT-15 colon),TGI (HS 578T breast),TGI (CAKI-1 renal),TGI (MDA-MB-435),TGI (SR leukemia),TGI (HOP-62 NSCLC),TGI (A498 renal),GI50 (UACC-257 melanoma),GI50 (OVCAR-4 ovarian),GI50 (TK-10 renal),GI50 (HCT-15 colon),GI50 (HS 578T breast),GI50 (CAKI-1 renal),GI50 (MDA-MB-435),GI50 (SR leukemia),GI50 (HOP-62 NSCLC),GI50 (A498 renal)
CC(c1ccccc1)n1cncc1C(=O)NN1CCN(C)CC1 (stereo not drawn),> 10 µM,> 10 µM,> 10 µM,> 10 µM,> 10 µM,> 10 µM,> 10 µM,> 10 µM,> 10 µM,> 10 µM,–,–,–,–,–,–,–,–,–,–
COc1cc2nc(N3CCC[C@H](NC4=CC(=O)c5ccccc5C4=O)C3)nc(N)c2cc1OC,3.94 µM,3.19 µM,4.12 µM,4.86 µM,4.64 µM,3.91 µM,4.03 µM,2.94 µM,4.48 µM,34 µM,2.18 µM,1.61 µM,2.41 µM,2.01 µM,1.97 µM,1.89 µM,2.05 µM,0.28 µM,2.26 µM,11.8 µM
CCOC(=O)c1c(N2CCCC2)[nH]c(=O)c(C(c2ccc(N(C)C)cc2)c2c(O)c(C(=O)OCC)c(N3CCCC3)[nH]c2=O)c1O,> 100 µM,> 100 µM,> 100 µM,> 100 µM,> 100 µM,> 100 µM,> 100 µM,> 100 µM,> 100 µM,> 100 µM,–,–,–,–,–,–,–,–,–,–
O=c1[nH]n(CCc2ccccc2CCl)c2ccc([N+](=O)[O-])cc12,> 100 µM,92 µM,> 100 µM,> 100 µM,> 100 µM,> 100 µM,> 100 µM,> 100 µM,> 100 µM,> 100 µM,–,–,–,–,–,–,–,–,–,–
Cn1c2ccc(Cl)cc2c2ccc3c(c21)C(=O)C=CC3=O,> 10 µM,> 10 µM,> 10 µM,> 10 µM,> 10 µM,> 10 µM,> 10 µM,> 10 µM,> 10 µM,> 10 µM,–,–,–,–,–,–,–,–,–,–
COc1cc2c3c(n(C)c(=O)c2cc1OC)-c1cc2c(cc1/C3=C\CCCCCBr)OCO2,> 100 µM,> 100 µM,55.8 µM,> 100 µM,> 100 µM,> 100 µM,> 100 µM,14.1 µM,25.1 µM,46 µM,–,–,–,–,–,–,19.2 µM,–,3.09 µM,–
CC(OP(=O)(O)O)C(N)C(=O)O (stereo not drawn),> 100 µM,> 100 µM,> 100 µM,> 100 µM,> 100 µM,> 100 µM,> 100 µM,> 100 µM,> 100 µM,> 100 µM,–,–,–,–,–,–,–,–,–,–
O=c1[nH]cc(N=Cc2cc(Cl)ccc2O)c(=O)[nH]1,> 100 µM,12.3 µM,> 100 µM,> 100 µM,> 100 µM,> 100 µM,> 100 µM,24.8 µM,53.7 µM,> 100 µM,–,–,–,–,–,–,–,–,–,–
O=C1C=C(N2CCN(c3ncccn3)CC2)C(=O)c2c(O)ccc(O)c21,> 100 µM,> 100 µM,> 100 µM,> 100 µM,> 100 µM,> 100 µM,24.3 µM,> 100 µM,> 100 µM,> 100 µM,–,–,–,–,–,–,–,–,–,–
Cc1ccc(N=C/C=C(\Nc2ccc(C)cc2)c2ccc3ccccc3c2)cc1,16.6 µM,11.2 µM,6.82 µM,4.24 µM,36.8 µM,12.7 µM,0.493 µM,1.44 µM,5.4 µM,24.2 µM,–,–,–,–,–,–,–,–,–,–
Cc1cc(N2CCCCC2)nc2ccc(Cc3ccc4nc(N5CCCCC5)cc(C)c4c3)cc12,> 100 µM,> 100 µM,> 100 µM,> 100 µM,> 100 µM,> 100 µM,> 100 µM,> 100 µM,> 100 µM,> 100 µM,–,–,–,–,–,–,–,–,–,–
CC(C)OP(=O)(OC(C)C)C(C(C)C)N(C)C(N)=NC#N (stereo not drawn),> 100 µM,> 100 µM,> 100 µM,> 100 µM,> 100 µM,> 100 µM,> 100 µM,> 100 µM,> 100 µM,> 100 µM,–,–,–,–,–,–,–,–,–,–
CCCC1=C(OC)C(=O)c2c(C)cc(Cl)nc2C1=O,19.7 µM,19.5 µM,34.5 µM,11.2 µM,> 47 µM,21.7 µM,3.45 µM,5.11 µM,29.9 µM,35 µM,–,–,–,–,–,–,–,–,–,–
COc1cccc(NC(=O)CC(=O)n2nc(-c3ccccc3)c(N=Nc3ccc(Cl)cc3)c2-c2ccccc2)c1,> 100 µM,> 100 µM,> 100 µM,> 100 µM,> 82.3 µM,> 100 µM,> 100 µM,> 73.2 µM,90.9 µM,> 83.1 µM,–,–,–,–,–,–,–,–,–,–
CC/C=C/c1cc2c(cc1O)CCC1C2CC[C@@]2(C)C1CC[C@@H]2O (stereo partly drawn),25.2 µM,35.3 µM,4.72 µM,29.9 µM,6.11 µM,13.7 µM,1.12 µM,0.817 µM,16.7 µM,9.03 µM,–,–,–,–,–,–,–,–,2.69 µM,–
COC(=O)/C=C\n1nc(Br)c(=O)[nH]c1=O,> 100 µM,> 100 µM,> 100 µM,> 100 µM,> 100 µM,> 100 µM,> 100 µM,> 100 µM,> 100 µM,> 100 µM,–,–,–,–,–,–,–,–,–,–

SMILES,TGI (UACC-257 melanoma),TGI (OVCAR-4 ovarian),TGI (TK-10 renal),TGI (HCT-15 colon),TGI (HS 578T breast),TGI (CAKI-1 renal),TGI (MDA-MB-435),TGI (SR leukemia),TGI (HOP-62 NSCLC),TGI (A498 renal),GI50 (UACC-257 melanoma),GI50 (OVCAR-4 ovarian),GI50 (TK-10 renal),GI50 (HCT-15 colon),GI50 (HS 578T breast),GI50 (CAKI-1 renal),GI50 (MDA-MB-435),GI50 (SR leukemia),GI50 (HOP-62 NSCLC),GI50 (A498 renal)
COC(=O)CCC(=O)NC1=C(Nc2ccccc2)C(=O)c2ccccc2C1=O,9.76 µM,22.9 µM,41.6 µM,27.6 µM,32.7 µM,27.5 µM,3.45 µM,56.7 µM,32.1 µM,28.6 µM,–,–,–,–,–,–,–,–,–,–
Cc1c(OCc2cccc3ccccc23)ccc2c(=O)cc(SCCN3CCOCC3)oc12,> 100 µM,> 100 µM,> 100 µM,> 100 µM,> 100 µM,> 100 µM,> 100 µM,> 100 µM,> 100 µM,> 100 µM,–,–,–,–,–,–,–,–,–,–
O=[N+]([O-])c1ccc(N2N=C(c3c(O)ccc4ccccc34)CC2c2ccc(Cl)cc2)c([N+](=O)[O-])c1 (stereo not drawn),> 100 µM,> 100 µM,> 100 µM,> 100 µM,> 100 µM,93.2 µM,> 100 µM,31.4 µM,61.6 µM,63.9 µM,–,–,–,–,–,–,–,–,–,–
NC1CCCCC1NCCNC1CCCCC1N (stereo not drawn),> 100 µM,> 100 µM,> 100 µM,> 100 µM,> 100 µM,> 100 µM,> 100 µM,> 100 µM,> 100 µM,> 100 µM,–,–,–,–,–,–,–,–,–,–
CC(C)(C)c1cc(OCc2nnc3sc(Cc4ccccc4)nn23)c(Cl)cc1OCc1nnc2sc(Cc3ccccc3)nn12,63.5 µM,> 100 µM,82.9 µM,> 100 µM,> 100 µM,> 100 µM,82.9 µM,70.6 µM,> 100 µM,67.2 µM,–,–,–,–,–,–,–,–,–,–
c1ccc2c(Nc3ncco3)cccc2c1,> 10 µM,> 10 µM,> 10 µM,> 10 µM,> 10 µM,> 10 µM,> 10 µM,> 10 µM,> 10 µM,> 10 µM,–,–,–,–,–,–,–,–,–,–
CC(CCc1nc2ccccc2s1)(c1ccc(O)cc1)c1ccc(O)cc1,28.7 µM,37 µM,34.1 µM,35.4 µM,52.9 µM,45 µM,30.8 µM,53.3 µM,31.5 µM,36.5 µM,–,–,–,–,–,–,–,–,–,–
O=C1CC(c2ccsc2)n2cccc21 (stereo not drawn),> 100 µM,> 100 µM,> 100 µM,> 100 µM,> 100 µM,> 100 µM,> 100 µM,> 100 µM,> 100 µM,> 100 µM,–,–,–,–,–,–,–,–,–,–
COC(=O)c1c2c(cc3c1CC1(Cc4cc5c(c(C)c4C1)CCC5)C3)CCC2 (stereo not drawn),> 100 µM,> 100 µM,> 100 µM,> 100 µM,> 100 µM,> 100 µM,> 100 µM,> 100 µM,> 100 µM,> 100 µM,–,–,–,–,–,–,–,–,–,–
Cc1nc2ccc(Cl)cc2c2c1CCO2,> 100 µM,> 100 µM,> 100 µM,> 100 µM,> 100 µM,79.6 µM,> 100 µM,> 100 µM,> 100 µM,> 100 µM,–,–,–,–,–,–,–,–,–,–
COc1ccc(-n2c(N)c(C#N)c(C#N)c2-c2ccco2)cc1,> 100 µM,> 100 µM,> 100 µM,> 100 µM,> 100 µM,> 100 µM,> 100 µM,> 100 µM,> 100 µM,> 100 µM,–,–,–,–,–,–,–,–,–,–
CC(=O)/C=C/c1ccccc1,> 100 µM,> 100 µM,> 100 µM,> 100 µM,> 100 µM,> 100 µM,68.3 µM,53 µM,93.9 µM,76.3 µM,–,–,–,–,–,–,–,–,–,–
Cc1nc2ccc(Br)cc2c(=O)n1-c1ccc(N)cc1,> 100 µM,> 100 µM,> 100 µM,> 100 µM,> 100 µM,> 100 µM,> 100 µM,> 100 µM,> 100 µM,> 100 µM,–,–,–,–,–,–,–,–,–,–
Nc1ccc2c(=O)cc(-c3ccc(Br)s3)[nH]c2n1,> 100 µM,> 100 µM,> 100 µM,> 100 µM,> 100 µM,> 100 µM,1.39 µM,> 51.1 µM,> 100 µM,> 100 µM,–,–,–,–,–,–,–,–,–,–
Clc1ccc(-c2nn3c(COc4cccc(OCc5nnc6sc(-c7ccc(Cl)cc7)nn56)c4)nnc3s2)cc1,62.1 µM,27.6 µM,> 100 µM,> 100 µM,> 100 µM,48.8 µM,41.7 µM,88.9 µM,> 100 µM,61.8 µM,–,–,–,–,–,–,–,–,–,–
O=C(Nc1ccc(-n2cc(-c3ccncc3)c(-c3ccc(O)c(Cl)c3)n2)cc1)c1ccc(Cl)c(C(F)(F)F)c1,34.5 µM,> 50 µM,18.1 µM,4.39 µM,3.1 µM,14.7 µM,39.4 µM,13 µM,> 50 µM,> 50 µM,4.87 µM,2.52 µM,1.72 µM,1.21 µM,0.702 µM,2.05 µM,2.06 µM,1.68 µM,2.31 µM,41.7 µM
